Values of other authors as cited in patent US20060257875A1, “Affinity screening using "one-bead-one-compound" libraries” (Carlsberg A/S, priority 2003, published 2006).

Target: T1, Phosphomannose isomerase (Candida albicans, UniProt P34948)
T1 sequence (P34948 1-441): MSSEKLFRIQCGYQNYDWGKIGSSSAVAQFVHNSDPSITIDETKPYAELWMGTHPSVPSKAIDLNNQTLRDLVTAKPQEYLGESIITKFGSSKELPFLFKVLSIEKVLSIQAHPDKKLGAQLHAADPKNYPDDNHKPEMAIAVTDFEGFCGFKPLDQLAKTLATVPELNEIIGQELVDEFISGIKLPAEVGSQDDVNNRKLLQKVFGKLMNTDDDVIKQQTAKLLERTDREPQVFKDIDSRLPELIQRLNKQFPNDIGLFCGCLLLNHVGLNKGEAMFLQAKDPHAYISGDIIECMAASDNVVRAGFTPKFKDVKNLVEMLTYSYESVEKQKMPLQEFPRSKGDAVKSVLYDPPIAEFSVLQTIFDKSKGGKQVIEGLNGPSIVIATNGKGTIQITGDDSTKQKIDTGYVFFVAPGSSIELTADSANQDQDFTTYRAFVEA
Details: in Candida; Wells et al, 1996; cited from earlier work

Nc1ccc(S(=O)(=O)Nc2ncccn2)cc1 [sulfadiazene]
inhibition of phosphomannose isomerase: inhibited
